# In patent publication US8449794B2, “Non-resonant two-photon absorption recording material and non-resonant two-photon absorption compound” (FUJIFILM Corporation, priority 2010, dated 2013):
# Read-outs that look alike come from different tables or passages of the source.
# Key:
# [1] = Evaluation of solubility of two-photon absorption compound; assay type: physicochemical; settings: coating solvent dichloromethane
# Description: The solubility of the compounds of the invention D-11, D-41 and D-405 and comparative compound R-2 in dichloromethane and 2-butanone is evaluated.
# [2] = Two-photon absorption cross-sectional area by Z scanning method; assay type: physicochemical; settings: measurement wavelength 550 nm; chloroform solution 1×10^−3
# Description: Measurement of a two-photon absorption cross-sectional area of the synthesized compound is carried out by Z scanning method described in Mansoor Sheik-Baha et al., IEEE, Journal of Quantum Electronics, 1990, 26, 760. Z scanning method is a widely used method as the measuring method of a non-linear optical constant. In the vicinity of the focus of converged laser beam, a measuring sample is moved along the beam and the change of the quantity of transmitting light is recorded. Since the power density of incident light changes depending upon the position of a sample, the quantity of transmitting light attenuates in the vicinity of the focus in the case where non-linear absorption is present. A two-photon absorption cross-sectional area is computed by fitting the change of the quantity of transmitting light to the theoretical curve predictable from the intensity of incident light, the size of converging spot of light, the thickness of a sample and the concentration of a sample. As the light sources for the measurement of a two-photon absorption cross-sectional area, a Ti-sapphire pulse laser (pulse duration: 100 fs, repetition: 80 MHz, average output: 1 W, peak power: 100 kW) obtained by combining a […] amplifier and light parametric amplifier is used. […]
# [3] = measurement wavelength vicinity of 525 nm; value in document; cited from earlier work
Compound,Solubility (in words) [1],Two-Photon Absorption Cross-Sectional Area [2] [GM],Two-Photon Absorption Cross-Sectional Area [3] [GM]
N#Cc1ccc(-c2ccc(-c3ccc(-c4ccc(C(=O)c5ccccc5)cc4)cc3)cc2)cc1 [Compound R-2],small in solubility,200,–
CCCCCCC(CCCC)Oc1ccc(-c2ccc(-c3ccc(-c4ccc(OC(CCCC)CCCCCC)cc4)cc3)cc2)cc1 (stereo not drawn) [Compound R-1],–,–,15
